US11446233B2, “Serums for reducing lipid peroxidation” (L'OREAL, priority 2020, dated 2022)

Assay: Ingredient metering: LC-UV concentration of active ingredients on storage
Type: physicochemical
Settings: for Concentration of ingredient in inventive formula, T1M 45° C / Concentration of ingredient in inventive formula, T1M TA: in Inventive Ex. 1, 1 month; for Concentration of ingredient in inventive formula, T1M TA / Concentration of ingredient in inventive formula, T2M TA: temperature ambient; for Concentration of ingredient in inventive formula, T2M 45° C / Concentration of ingredient in inventive formula, T2M TA: in Inventive Ex. 1, 2 months; for Concentration of ingredient in inventive formula, T0 M: in Inventive Ex. 1, month 0
Text: The levels of Ascorbic Acid, Ferulic Acid, Salicylic Acid, and Silybum marianum Extract (Active Silybin) were metered.

Concentration of ingredient in inventive formula, T1M 45° C	Concentration of ingredient in inventive formula, T1M TA	Concentration of ingredient in inventive formula, T2M 45° C	Concentration of ingredient in inventive formula, T2M TA	Concentration of ingredient in inventive formula, T0 M	SMILES
14.72%	15.04%	14.00%	15.60%	15.2%	O=C1O[C@H]([C@@H](O)CO)C(O)=C1O [Ascorbic Acid]
0.43%	0.48%	0.39%	0.50%	0.46%	COc1cc(/C=C/C(=O)O)ccc1O [Ferulic Acid]
0.49%	0.50%	0.47%	0.49%		O=C(O)c1ccccc1O [Salicylic Acid]
